The record followed here is ChEMBL document CHEMBL4265910, “(E)-N-Aryl-2-oxo-2-(3,4,5-trimethoxyphenyl)acetohydrazonoyl cyanides as tubulin polymerization inhibitors: Structure-based bioisosterism design, synthesis, biological evaluation, molecular docking and in silico ADME prediction” (Bioorg Med Chem Lett, 2018).

For one assay, the system named is MDA-MB-231. Briefly: Antiproliferative activity against human MDA-MB-231 cells after 72 hrs by MTT assay. The settings on record: MDA-MB-231, 72 h. Type of assay: functional, cell-based. On the technique in general: Tetrazolium assays rely on reduction of a dye to a coloured formazan, in cell work by metabolically active cells.
Another assay relates to DU-145. In words: Antiproliferative activity against human DU145 cells after 72 hrs by MTT assay. The conditions noted are these: DU-145, 72 h. Type of assay: functional, cell-based.
The subject of assay [1] is MCF7. Briefly: Antiproliferative activity against human MCF7 cells after 72 hrs by MTT assay. Type of assay: functional, cell-based. The conditions noted are these: MCF7, 72 h.
For a further assay, the system named is HCT-116. Briefly: Antiproliferative activity against human HCT116 cells after 72 hrs by MTT assay. Type of assay: functional, cell-based. The conditions noted are these: HCT-116, 72 h.
Assay [2] is described as follows: Antiproliferative activity against human HCT8/T cells after 72 hrs by MTT assay. The class given is functional, cell-based. The settings on record: HCT-8, 72 h.
The test system of a further assay is B16-F10. Briefly: Antiproliferative activity against mouse B16F10 cells after 72 hrs by MTT assay. The class given is functional, cell-based. The conditions noted are these: B16-F10, 72 h.
For a further assay, the system named is HeLa. Briefly: Antiproliferative activity against human HeLa cells after 72 hrs by MTT assay. The class given is functional, cell-based.
In assay [3] the test system is HepG2. In words: Antiproliferative activity against human HepG2 cells after 72 hrs by MTT assay. Type of assay: functional, cell-based. The settings on record: HepG2, 72 h.
The test system of the next assay is A2780S. Briefly: Antiproliferative activity against human A2780S cells. Type of assay: functional, cell-based.
In another assay the test system is A549. Briefly: Antiproliferative activity against human A549 cells. The class given is functional, cell-based.
The test system of a further assay is HT-29. In words: Antiproliferative activity against human HT-29 cells. Type of assay: functional, cell-based.
The test system of assay [4] is HepG2. In words: Antiproliferative activity against human HepG2 cells. Type of assay: functional, cell-based.
For the next assay, the system named is SK-OV-3. In words: Antiproliferative activity against human SKOV3 cells. Type of assay: functional, cell-based.
The subject of the next assay is CHL-1. In words: Antiproliferative activity against human CHL-1 cells. The class given is functional, cell-based.
Assay [5] concerns MCF7. In words: Antiproliferative activity against human MCF7 cells. The class given is functional, cell-based.
The test system of assay [6] is HepG2. Briefly: Cell cycle arrest in human HepG2 cells assessed as accumulation at S phase at 0.25 uM after 24 hrs by RNase A/propidium iodide staining-based flow cytometric analysis (reference value: 28.30%). The class given is functional. A general note: Flow cytometry measures light scatter and fluorescence of single cells or particles in a stream.
For assay [7], the system named is HepG2. In words: Cell cycle arrest in human HepG2 cells assessed as accumulation at G1 phase at 0.25 uM after 24 hrs by RNase A/propidium iodide staining-based flow cytometric analysis (reference value: 50.61%). The class given is functional.
In assay [8] the test system is HepG2. Briefly: Cell cycle arrest in human HepG2 cells assessed as accumulation at S phase at 0.5 uM after 24 hrs by RNase A/propidium iodide staining-based flow cytometric analysis (reference value: 28.30%). The class given is functional.
The subject of assay [9] is HepG2. Briefly: Cell cycle arrest in human HepG2 cells assessed as accumulation at G2/M phase after 24 hrs by RNase A/propidium iodide staining-based flow cytometric analysis. Type of assay: functional.
For assay [10], the system named is HepG2. Briefly: Cell cycle arrest in human HepG2 cells assessed as accumulation at G1 phase at 0.5 uM after 24 hrs by RNase A/propidium iodide staining-based flow cytometric analysis (reference value: 50.61%). Type of assay: functional.
The test system of assay [11] is HepG2. In words: Cell cycle arrest in human HepG2 cells assessed as accumulation at G2/M phase at 0.25 uM after 24 hrs by RNase A/propidium iodide staining-based flow cytometric analysis (reference value: 21.09%). Type of assay: functional.
Assay [12] relates to HepG2. In words: Cell cycle arrest in human HepG2 cells assessed as accumulation at G2/M phase at 0.5 uM after 24 hrs by RNase A/propidium iodide staining-based flow cytometric analysis (reference value: 21.09%). The class given is functional.
The species entered for the next assay is Sus scrofa. In words: (§1) Inhibition of tubulin polymerization in porcine brain assessed as disruption of tubulin assembly by spectrophotometric analysis.
Assay [13] in a line: as §1. Also on record: species or system Sus scrofa.

By IC50 is commonly meant the concentration that inhibits the measured activity by half. Regarding `COc1cc(C(=O)/C(C#N)=N/Nc2ccc(C)cc2)cc(OC)c1OC`, the IC50 with MDA-MB-231 was 2.24 µM; with DU-145, 0.098 µM; in the assay with MCF7 [1] it was 0.43 µM; in the assay on HCT-116, 0.87 µM; in [2] it was 7.64 µM; in the assay with B16-F10, 2.23 µM. In addition, the IC50 in the assay on HeLa was determined as 0.31 µM; in the assay on HepG2 [3] it was 0.61 µM.

As to `COc1cc(C(=O)/C(C#N)=N/Nc2ccccc2F)cc(OC)c1OC`, the values for the IC50 in the assay on MCF7 [1] and in the assay on HepG2 [3] were 1.69 µM and 2.1 µM, respectively.

For `COc1cc(C(=O)/C(C#N)=N/Nc2ccc(C(F)(F)F)cc2)cc(OC)c1OC`, the IC50 in the assay on MCF7 [1] stood at 3.02 µM; with HepG2 [3], 2.68 µM.

As to `COc1cc(N/N=C(\C#N)C(=O)c2cc(OC)c(OC)c(OC)c2)cc(OC)c1OC`, the IC50 in the assay with MCF7 [1] and in the assay with HepG2 [3] was greater than 10 µM each time.

With `COc1cccc(N/N=C(\C#N)C(=O)c2cc(OC)c(OC)c(OC)c2)c1`, the IC50 was 8.82 µM in the assay with MCF7 [1] and 6.46 µM in the assay with HepG2 [3].

With `COc1cc2c(c(OC)c1OC)-c1ccc(OC)c(=O)cc1[C@@H](NC(C)=O)CC2` [COLCHICINE], the IC50 stood at 0.0776 µM in the assay on MDA-MB-231; 0.00345 µM in the assay on DU-145; 0.0262 µM with HCT-116; 0.227 µM in assay [2]; 0.0442 µM in the assay with B16-F10; 0.00889 µM in the assay on HeLa.

For the compound `COc1ccc(N/C=C(\C#N)C(=O)c2cc(OC)c(OC)c(OC)c2)cc1`, the IC50 with A2780S was 1.88 µM; with A549 it was 2.09 µM; in the assay on HT-29, 1.28 µM; with HepG2 [4], 1.2 µM; in the assay with SK-OV-3, 1.27 µM; in the assay on MCF7 [1], 1.93 µM. For the same compound, the IC50 is 1.22 µM with CHL-1, 1.84 µM with MCF7 [5] and 1.38 µM with HepG2 [3].

For `COc1cc(C(=O)/C(C#N)=N/Nc2ccc(Cl)cc2Cl)cc(OC)c1OC`, the IC50 with MCF7 [1] and with HepG2 [3] was greater than 10 µM in each case.

As to `CCOc1ccc(N/N=C(\C#N)C(=O)c2cc(OC)c(OC)c(OC)c2)cc1`, the values for the IC50 in the assay on MCF7 [1] and in the assay on HepG2 [3] were 7.01 µM and 6.62 µM, respectively.

`COc1cc(C(=O)/C(C#N)=N/Nc2ccccc2)cc(OC)c1OC`: the results for the IC50 with MCF7 [1] and in the assay with HepG2 [3] were 6.38 µM and 5.19 µM, respectively.

On to `COc1cc(C(=O)/C(C#N)=N/Nc2cccc(C)c2)cc(OC)c1OC`, for which the results for the IC50 with MCF7 [1] and in the assay on HepG2 [3] were 5.89 µM and 6.11 µM, respectively.

Consider `COc1ccc(N/N=C(\C#N)C(=O)c2cc(OC)c(OC)c(OC)c2)cc1`, for which the IC50 in the assay on MDA-MB-231 is 2.46 µM; in the assay on DU-145 it was 0.12 µM; with MCF7 [1], 0.28 µM; in the assay on HCT-116 it was 3.19 µM; in assay [2], 4.62 µM; with B16-F10 it was 3.26 µM. Besides, the IC50 turned out to be 0.22 µM in the assay on HeLa and 0.44 µM in the assay with HepG2 [3].

As to `COc1cc(C(=O)/C(C#N)=N/Nc2ccc(F)cc2)cc(OC)c1OC`, the IC50 in the assay on MCF7 [1] amounted to 9.84 µM; with HepG2 [3], 9.71 µM.

Regarding `COc1ccc(N/N=C(\C#N)C(=O)c2cc(OC)c(OC)c(OC)c2)cc1O`, the IC50 in the assay on MDA-MB-231 is 0.72 µM; in the assay on DU-145, 0.077 µM; in the assay on MCF7 [1] it was 0.26 µM; in the assay on HCT-116 it was 0.81 µM; in assay [2], 3.96 µM; in the assay on B16-F10 it was 2.11 µM. Besides, the IC50 with HeLa was found to be 0.081 µM; in assay [13] it was 0.9 µM; in the assay on HepG2 [3] it was 0.32 µM. Moreover, the Activity with HepG2 [6] was 17.01%; in the assay with HepG2 [7], 4.09%; in the assay with HepG2 [8], 5.43%; with HepG2 [9], “Dose-dependent effect”; with HepG2 [10], 0.45%; with HepG2 [11], 78.89%. The Activity in the assay with HepG2 [12] amounted to 94.12%. Besides, the inhibition result in the assay filed under Sus scrofa is “Dose-dependent effect”.

Turning to `CCOc1ccccc1N/N=C(\C#N)C(=O)c1cc(OC)c(OC)c(OC)c1`, the IC50 in the assay with MCF7 [1] and with HepG2 [3] was greater than 10 µM throughout.

Take `COc1cc(C(=O)/C(C#N)=N/Nc2ccc([N+](=O)[O-])cc2)cc(OC)c1OC`: the IC50 in the assay with MCF7 [1] and in the assay with HepG2 [3] was greater than 10 µM each time.
